Data from US20100298141A1, “SUBSTITUTED PYRIDINE N-OXIDE HERBICIDES” (E. I. DU PONT DE NEMOURS AND COMPANY, priority 2007, published 2010).

What was measured:
bermudagrass = assay: Test C pre-/postemergence test; format: in vivo, Cynodon dactylon; settings: for Plant response rating, Bermudagrass: 31 g ai/ha; for Plant response rating (0 to 100), Bermudagrass: 250 g ai/ha
Summary of the method: (§1)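 Compounds in a non-phytotoxic solvent with surfactant applied preemergence to seeded pots and, at the same time, postemergence to plants 2–18 cm tall (1- to 4-leaf stage). Paddy tests: pots flooded to 3 cm, compound applied into the water, depth held throughout.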

green foxtail = assay: Test C pre-/postemergence test; format: in vivo, Setaria viridis; settings: Preemergence; for Foxtail, Green plant response rating: 62 g ai/ha, scale 0 to 100; for Plant response rating, Foxtail, Green: 31 g ai/ha, scale 0 to 100 (0 no effect, 100 complete control); for Plant response rating (0 to 100), Foxtail, Green: 250 g ai/ha
Summary of the method: as §1

downy brome = assay: Test C pre-/postemergence test; format: in vivo, Bromus tectorum; settings: for Plant response rating, Bromegrass, Downy: 31 g ai/ha, scale 0 to 100 (0 no effect, 100 complete control); for Plant response rating (0 to 100), Bromegrass, Downy: 250 g ai/ha
Summary of the method: as §1

wild oat = assay: Test C pre-/postemergence test; format: in vivo, Avena fatua; settings: Preemergence; for Oat, Wild plant response rating: 62 g ai/ha, scale 0 to 100; for Plant response rating, Oat, Wild: 31 g ai/ha, scale 0 to 100 (0 no effect, 100 complete control)
Summary of the method: as §1

catchweed bedstraw = assay: Test C pre-/postemergence test; format: in vivo, Galium aparine; settings: Preemergence; for Galium plant response rating: 62 g ai/ha, scale 0 to 100; for Plant response rating, Galium: 31 g ai/ha, scale 0 to 100 (0 no effect, 100 complete control); for Plant response rating (0 to 100), Galium: 250 g ai/ha
Summary of the method: as §1

morningglory = assay: Test A pre-/postemergence greenhouse test; format: in vivo, Ipomoea spp.; settings: for Morningglory plant response rating: 0 to 100 scale; for Plant response rating, Morningglory: 0 to 100 scale where 0 is no effect and 100 is complete control
Summary of the method: (§2)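 Two application timings were run side by side in the greenhouse. Before emergence, compound went onto the soil surface of loam–sand pots as a directed spray; after emergence, plants at 2–10 cm and the one- to two-leaf stage were treated. Visual injury versus controls was rated at approximately day ten.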

redroot pigweed = assay: Test A pre-/postemergence greenhouse test; format: in vivo, Amaranthus retroflexus; settings: for Pigweed plant response rating: 0 to 100 scale; for Plant response rating, Pigweed: 0 to 100 scale where 0 is no effect and 100 is complete control
Summary of the method: as §2

lambsquarters = assay: Test C pre-/postemergence test; format: in vivo, Chenopodium album; settings: Preemergence; for Lambsquarters plant response rating: 62 g ai/ha, scale 0 to 100; for Plant response rating, Lambsquarters: 31 g ai/ha, scale 0 to 100 (0 no effect, 100 complete control)
Summary of the method: as §1

duck salad = assay: Test C flooded paddy test; format: in vivo, Heteranthera limosa; settings: Flood
Summary of the method: (§3)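 Pots were flooded to 3 cm above the soil surface at treatment, compound applied directly to the paddy water, and that depth held throughout. Plants were kept in a greenhouse for 13 to 15 days, then visually rated against untreated controls.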

woolly cupgrass = assay: Test C pre-/postemergence test; format: in vivo, Eriochloa villosa; settings: Preemergence; for Cupgrass, Woolly plant response rating: 62 g ai/ha, scale 0 to 100; for Plant response rating, Cupgrass, Woolly: 31 g ai/ha, scale 0 to 100 (0 no effect, 100 complete control); for Plant response rating (0 to 100), Cupgrass, Woolly: 250 g ai/ha
Summary of the method: as §1

yellow nutsedge = assay: Test C pre-/postemergence test; format: in vivo, Cyperus esculentus; settings: Preemergence; for Nutsedge, Yellow plant response rating: 62 g ai/ha, scale 0 to 100; for Plant response rating, Nutsedge, Yellow: 31 g ai/ha, scale 0 to 100 (0 no effect, 100 complete control)
Summary of the method: as §1

soybean = assay: Test C pre-/postemergence test; format: in vivo, Glycine max; settings: Preemergence; for Soybean plant response rating: 62 g ai/ha, scale 0 to 100
Summary of the method: as §1

blackgrass = assay: Test C pre-/postemergence test; format: in vivo, Alopecurus myosuroides; settings: for Plant response rating, Blackgrass: 31 g ai/ha, scale 0 to 100 (0 no effect, 100 complete control); for Plant response rating (0 to 100), Blackgrass: 250 g ai/ha
Summary of the method: as §1

cocklebur = assay: Test C pre-/postemergence test; format: in vivo, Xanthium strumarium; settings: for Plant response rating, Cocklebur: 31 g ai/ha, scale 0 to 100 (0 no effect, 100 complete control); for Plant response rating (0 to 100), Cocklebur: 250 g ai/ha
Summary of the method: as §1

rice = assay: Test C flooded paddy test; format: in vivo, Oryza sativa; settings: Flood
Summary of the method: as §3

kochia = assay: Test C pre-/postemergence test; format: in vivo, Kochia scoparia; settings: Preemergence; for Kochia plant response rating: 62 g ai/ha, scale 0 to 100; for Plant response rating, Kochia: 31 g ai/ha, scale 0 to 100 (0 no effect, 100 complete control)
Summary of the method: as §1

[1] = 62 g ai/ha, Preemergence, scale 0 to 100 (0 no effect, 100 complete control)
[2] = Preemergence, scale 0 to 100 (0 no effect, 100 complete control)
[3] = preemergence, 125 g ai/ha, scale 0 (no effect) to 100 (complete control)
[4] = 62 g ai/ha, Preemergence, scale 0 to 100
[5] = Postemergence, 125 g ai/ha, 0 is no effect, 100 is complete control
[6] = Postemergence, 500 g ai/ha, 0 is no effect, 100 is complete control
[7] = Preemergence, 125 g ai/ha, 0 no effect, 100 complete control
[8] = 31 g ai/ha, scale 0 to 100 (0 no effect, 100 complete control)
[9] = 62 g ai/ha, scale 0 to 100, 0 no effect, 100 complete control, 13 to 15 days
[10] = 125 g ai/ha, scale 0 to 100, 0 no effect, 100 complete control, 13 to 15 days
[11] = 250 g ai/ha, scale 0 to 100 (0 no effect, 100 complete control)

Cc1cc[n+]([O-])c([S+]([O-])Cc2c(C(F)(F)F)nn(C)c2Cl)c1 (racemic) [Compound 20]
60: Morningglory plant response rating (morningglory; [6])
75: Plant response rating, Ducksalad (duck salad; [11])
20: Plant response rating (0 to 100), Cocklebur (cocklebur; Preemergence)
10: Oat, Wild plant response rating (wild oat) | Nutsedge, Yellow plant response rating (yellow nutsedge)
85: Bermudagrass plant response rating (bermudagrass; [1]) | Galium plant response rating (catchweed bedstraw)
0: Bromegrass, Downy plant response rating (downy brome; [4]) | Plant response rating, Bromegrass, Downy (downy brome; Preemergence) | Plant response rating, Oat, Wild (wild oat) | Plant response rating, Ducksalad (duck salad; [8]) | Plant response rating, Ducksalad (duck salad; [9]) | Plant response rating, Ducksalad (duck salad; [10]) | Plant response rating, Cupgrass, Woolly (woolly cupgrass) | Plant response rating, Nutsedge, Yellow (yellow nutsedge) | Soybean plant response rating (soybean) | Plant response rating, Soybean (soybean; [8]) | Cocklebur plant response rating (cocklebur; [4]) | Plant response rating, Cocklebur (cocklebur; Preemergence) | Cocklebur plant response rating (cocklebur; [3]) | Plant response rating, Rice (rice; [8]) | Plant response rating, Rice (rice; [9]) | Plant response rating, Rice (rice; [10]) | Plant response rating, Kochia (kochia)
40: Morningglory plant response rating (morningglory; [5]) | Pigweed plant response rating (redroot pigweed; [5])
30: Plant response rating, Rice (rice; [11])
80: Plant response rating, Galium (catchweed bedstraw) | Plant response rating, Morningglory (morningglory; Preemergence, 500 g ai/ha)
100: Plant response rating (0 to 100), Bermudagrass (bermudagrass; Preemergence) | Bermudagrass plant response rating (bermudagrass; [3]) | Foxtail, Green plant response rating (green foxtail) | Plant response rating (0 to 100), Foxtail, Green (green foxtail) | Plant response rating (0 to 100), Galium (catchweed bedstraw) | Plant response rating, Pigweed (redroot pigweed; Preemergence, 500 g ai/ha) | Lambsquarters plant response rating (lambsquarters) | Plant response rating (0 to 100), Cupgrass, Woolly (woolly cupgrass) | Plant response rating (0 to 100), Blackgrass (blackgrass; Preemergence) | Blackgrass plant response rating (blackgrass; [3]) | Kochia plant response rating (kochia)
98: Plant response rating, Foxtail, Green (green foxtail) | Blackgrass plant response rating (blackgrass; [4])
55: Plant response rating, Bermudagrass (bermudagrass; [2])
70: Plant response rating (0 to 100), Bromegrass, Downy (downy brome; Preemergence) | Bromegrass, Downy plant response rating (downy brome; [3]) | Morningglory plant response rating (morningglory; [7]) | Pigweed plant response rating (redroot pigweed; [6]) | Cupgrass, Woolly plant response rating (woolly cupgrass) | Plant response rating, Blackgrass (blackgrass; Preemergence)
90: Pigweed plant response rating (redroot pigweed; [7]) | Plant response rating, Lambsquarters (lambsquarters)

Cn1nc(C(F)(F)F)c(C[S+]([O-])c2cccc[n+]2[O-])c1OCC(F)(F)F (racemic) [Compound 28]
95: Plant response rating, Ducksalad (duck salad; [10]) | Plant response rating, Ducksalad (duck salad; [11]) | Soybean plant response rating (soybean)
75: Oat, Wild plant response rating (wild oat)
80: Morningglory plant response rating (morningglory; [6]) | Plant response rating, Ducksalad (duck salad; [9]) | Nutsedge, Yellow plant response rating (yellow nutsedge) | Plant response rating, Nutsedge, Yellow (yellow nutsedge) | Plant response rating, Rice (rice; [11])
10: Cocklebur plant response rating (cocklebur; [4])
25: Plant response rating, Rice (rice; [9])
60: Morningglory plant response rating (morningglory; [5]) | Morningglory plant response rating (morningglory; [7])
90: Plant response rating, Morningglory (morningglory; Preemergence, 500 g ai/ha) | Pigweed plant response rating (redroot pigweed; [6])
40: Bromegrass, Downy plant response rating (downy brome; [4])
100: Bermudagrass plant response rating (bermudagrass; [1]) | Plant response rating, Bermudagrass (bermudagrass; [2]) | Plant response rating (0 to 100), Bermudagrass (bermudagrass; Preemergence) | Bermudagrass plant response rating (bermudagrass; [3]) | Foxtail, Green plant response rating (green foxtail) | Plant response rating, Foxtail, Green (green foxtail) | Plant response rating (0 to 100), Foxtail, Green (green foxtail) | Plant response rating (0 to 100), Bromegrass, Downy (downy brome; Preemergence) | Galium plant response rating (catchweed bedstraw) | Plant response rating, Galium (catchweed bedstraw) | Plant response rating (0 to 100), Galium (catchweed bedstraw) | Pigweed plant response rating (redroot pigweed; [7]) | Plant response rating, Pigweed (redroot pigweed; Preemergence, 500 g ai/ha) | Lambsquarters plant response rating (lambsquarters) | Plant response rating, Lambsquarters (lambsquarters) | Cupgrass, Woolly plant response rating (woolly cupgrass) | Plant response rating (0 to 100), Cupgrass, Woolly (woolly cupgrass) | Blackgrass plant response rating (blackgrass; [4]) | Plant response rating, Blackgrass (blackgrass; Preemergence) | Plant response rating (0 to 100), Blackgrass (blackgrass; Preemergence) | Blackgrass plant response rating (blackgrass; [3]) | Kochia plant response rating (kochia) | Plant response rating, Kochia (kochia)
50: Bromegrass, Downy plant response rating (downy brome; [3]) | Cocklebur plant response rating (cocklebur; [3])
0: Plant response rating, Bromegrass, Downy (downy brome; Preemergence) | Plant response rating, Cocklebur (cocklebur; Preemergence) | Plant response rating, Rice (rice; [8])
65: Plant response rating, Ducksalad (duck salad; [8]) | Plant response rating (0 to 100), Cocklebur (cocklebur; Preemergence) | Plant response rating, Rice (rice; [10])
70: Plant response rating, Oat, Wild (wild oat) | Pigweed plant response rating (redroot pigweed; [5]) | Plant response rating, Cupgrass, Woolly (woolly cupgrass)
